For the test, the system named is subject having diabetes with A1C as high as 13. Description: blood A1C level of a diabetic subject, astaxanthin alone and then the daily dose (Example 4). Conditions: one subject, 12-24 mg of astaxanthin a day. The test is classed as in vivo, human. From the text: They begin taking softgel capsules of the daily dose of Example 1 and after 6 weeks their blood A1C level is 5.6 with no changes in diet or habits.

This note sets out measurements from patent publication US11696593B2, “Astaxanthin nutritional compositions and uses” (Bioscience Formulators, LLC, priority 2018, dated 2023).

In the case of `CC1=C(/C=C/C(C)=C/C=C/C(C)=C/C=C/C=C(C)/C=C/C=C(C)/C=C/C2=C(C)C(=O)C(O)CC2(C)C)C(C)(C)CC(O)C1=O` (stereo not drawn) [astaxanthin, 3,3′-dihydroxy-β-carotene-4,4′-dione], the blood A1C levels was ≤ 13%.
